Tests used:
PARP-3 = assay: Real-time RT-PCR of PARP-3 transcripts; format: cell-based, human; settings: primary melanoma cells; BQ788 treatment
Description: Equal amounts of RNA from cells that were treated with BQ788 for 3 days were subjected to real-time RT-PCR analysis for the detection of BCL-2A1 (A) and ADP ribosyltransferase 3 (B) transcripts. Total amounts are represented in A while relative (to control) values are shown in B. Differences in expression levels are shown as x fold decrease and are statistically significant (p<0.05) unless a column in marked as non significant (N.S.). Lysates of BQ788 treated cells and controls were subjected to an apoptosis ELISA detection test (C). SK-MEL-28 cells were cultured with pan caspase inhibitor (D) or with caspase 6 inhibitor (E) with or without BQ788 for 2.5 days. […] SK-MEL-28 cells were cultured for 3 days in the presence of BQ788 and assayed for caspase 6 activity (F). The difference between the columns is statistically significant (p<0.05).
(§1) RNA was prepared from the different cell lines in different culture conditions using SV total RNA isolation kit (Promega) according to the manufacturer's protocol. For each sample RNA concentration was determined using the total RNA nano procedure of an Agilent bioanalyzer. […] A standard curve of Ct versus RNA quantity was established and accordingly the Ct in the unknown samples was correlated to quantity of transcript. […]

[1] = hypertension patients and healthy volunteers; cited from earlier work
GRAVIN = assay: Real-time RT-PCR of Gravin transcripts; format: cell-based, human; settings: melanoma cell lines treated with BQ788
Description: (§2) Equal amounts of RNA from cells that were treated with BQ788 for 3 days were subjected to real-time RT-PCR analysis for the detection VEGF (A), HIF-1α (B) and Gravin (C) transcripts. Differences in expression levels are shown as x fold change and are statistically significant (p<0.05) unless a column in marked as non significant (N.S.). Sections of two representative tumors derived from a human melanoma cell line grown in nude mice and injected either with vehicle (D) or BQ788 (E) were stained with anti CD-31 to highlight blood vessels (brown staining, Lahav et al, 1999).
as §1, with “bioanalyzer. A stock of SK-MEL-28 RNA aliquots was prepared containing 10, 20, 50, 100, 200, 500 and 1000 ng/12 μl for use as a standard curve and kept in −80° C. For the experimental unknown samples, a stock of 100 ng/12 μl RNA aliquots from each cell line and condition was prepared and stored at −80° C.” for “bioanalyzer.”

VEGF = assay: Real-time RT-PCR of VEGF transcripts; format: cell-based, human; settings: BQ788 3 days
Description: as §2
(§3) RNA was prepared from the different cell lines in different culture conditions using SV total RNA isolation kit (Promega) according to the manufacturer's protocol. For each sample RNA concentration was determined using the total RNA nano procedure of an Agilent bioanalyzer. A stock of SK-MEL-28 RNA aliquots was prepared containing 10, 20, 50, 100, 200, 500 and 1000 ng/12 μl for use as a standard curve and kept in −80° C. For the experimental unknown samples, a stock of 100 ng/12 μl RNA aliquots from each cell line and condition was prepared and stored at −80° C. For each real-time experiment one series of standard curve and unknown experimental series of aliquots was put on ice for use. Complementary DNA was prepared by adding to each tube 0.5 μl of random hexamers (Promega) and 1 μl of 10 mM dNTP mix (Promega) and incubating at 65° C. for 5 min. 4 μl of 5× M-MLV buffer (Promega), 1 μl of the RNase inhibitor RNasin (Promega) and 1 μl of M-MLV RT RNase H (Promega) were then added and the solution was incubated at 42° C. for 50 min followed by 15 min at 70° C. For real time reactions 15 μl of each cDNA sample were transferred to 3 wells in a 386 well plate. To each well we added 10 μl of TaqMan universal PCR master mix (Applied Biosystems), 1 μl of primers+probe mix (Assays-on-Demand from Applied Biosystems: EDNRB Hs00240747, BCL-2A1 Hs00187845, PARP-3 Hs00154151, VEGF Hs00173626, HIF-1α Hs00153153 and Gravin Hs00374507) and 4 μl of nuclease free water (Promega). Wells containing water instead of cDNA served as negative controls. The samples were subjected to 40 cycles of 15 sec at 95° C. and 1 min at 60° C. A standard curve of Ct versus RNA quantity was established and accordingly the Ct in the unknown samples was correlated to quantity of transcript.
Real-time PCR analysis confirmed that VEGF expression levels increased 18-fold in BQ788 treated LN-met cells and 65-fold in SK-MEL-28 cells, compared to only 2-fold in primary melanoma, and no change in the Cut-met line (FIG. 5). The changes in VEGF expression levels can be explained, at least in part, by changes in the expression levels of its known regulator hypoxia inducible factor-1 oc (HIF-1α) (Maxwell, et al., Oxygen sensors and angiogenesis, Semin. Cell Dev. Biol., 13:29-37 (2002)). […]

ETRB = assay: Real-time RT-PCR of ETRB transcripts; format: cell-based, human; settings: BQ788 treatment
Description: Real-time RT-PCR detection of ETRB transcripts (see legends FIG. 2) (A). ETRB protein expression compared to tubulin in SK-MEL-28 cells after 3, 5 and 7 days with (+) or without (−) BQ788 (B).
as §3

[2] = test system: tumors derived from a human melanoma cell line grown in nude mice; assay: Anti-CD31 immunohistochemistry of tumor sections (angiogenesis); format: in vivo; settings: tumors injected with BQ788 vs vehicle
Description: as §2
The relationship between the expression patterns of VEGF and GRAVIN is consistent with that observed in astrocytes, where GRAVIN down-regulates VEGF expression (Lee, et al., SSeCKS regulates angiogenesis and tight junction formation in blood-brain barrier, Nat. Med., 9:900-906 (2003)). In the present study we observed, at least for the most sensitive cell lines, LN-met and SK-MEL-28, that down-regulation of GRAVIN correlates with induction of VEGF. We therefore analyzed tissue sections of tumors derived from a human melanoma cell line grown in nude mice and injected with BQ788 for signs of changes in angiogenesis (Lahav, et al., An endothelin receptor B antagonist inhibits growth and induces cell death in human melanoma cells in vitro and in vivo, Proc. Natl. Acad. Sci. U.S.A., 96:11496-11500 (1999)).

7 melanoma lines = assay: MTS assay, number of viable cells; format: cell-based; settings: 100 μM BQ788; all 7 melanoma lines tested

CCCC[C@@H](NC(=O)[C@@H](Cc1cn(C(=O)OC)c2ccccc12)NC(=O)[C@H](CC(C)(C)C)NC(=O)N1[C@H](C)CCC[C@@H]1C)C(=O)O [BQ788, N-cis-2,6-dimethylpiperidinocarbonyl-L-γ-methylleucyl-D-1-methoxycarbonyltrptophanyl-D-norleucine]
PARP-3 levels (PARP-3): did not show a decrease | toxicity in clinical trials [1]: not found to be toxic | GRAVIN expression (GRAVIN): down-regulated | VEGF expression level change (VEGF; Cut-met line): no change | increase in VEGF expression levels (VEGF; LN-met cells): 18 fold | increase in VEGF expression levels (VEGF; SK-MEL-28 cells): 65 fold | increase in VEGF expression levels (VEGF; primary melanoma): 2 fold | reduction in ETRB mRNA expression (ETRB; Cut-met line): 1.49 fold | reduction in ETRB mRNA expression (ETRB; LN-met line): 1.85 fold | reduction in ETRB mRNA expression (ETRB; SK-MEL-28 cells): 11 fold | ETRB expression level change (ETRB; primary melanoma cells): did not show any change | angiogenesis in tumors (anti-CD31 staining) [2]: clear increase in angiogenesis | number of viable cells (7 melanoma lines): very significant loss

— patent US20060094676A1, “Compositions and methods for treating cancer using compositions comprising an inhibitor of endothelin receptor activity” (priority 2004, published 2006)
